Results reported in patent EP0341661A2, “Peptide-drug compositions containing alpha-aminoboronic acid derivatives” (THE DU PONT MERCK PHARMACEUTICAL COMPANY, priority 1988, dated 1989).
Where a name gives a salt, the structure may show the parent alone.

System: aminopeptidases
Experiment: In situ nasal perfusion: degradation of 100 µM leucine enkephalin in the nasal perfusate
Type: in vivo, Sprague-Dawley rats
Settings: for % Leucine Enkephalin Remaining: 0.1 µM inhibitor
Experimental: In order to evaluate the effectiveness of the α-aminoboronic acid derivative inhibitors of this invention, an animal model was used (according to A. Hussain, J. Furaj, A. Yukihiko and J. E. Truelove, Biochem. Biophys. Res. Com. 133, 923, 1985) to assess the degradation of proteins and peptides in situ and in vivo in situ in the nasal cavity of rats. The method involved the use of Sprague-Dawley rats weighing approximately 300 grams. Each rat was anesthetized with sodium pentobarbitol (50 mg/kg). An incision was made in the neck and the trachea was canulated with PE 240 tubing. For the in situ studies, a second tube, which served to introduce the perfusing solution, was inserted through the esophagus to the posterior part of the nasal cavity. The nasopalatine was closed with an adhesive to prevent drainage of the perfusing solution from the nasal to the oral cavity. For the in vivo in situ studies, the esophagus was canulated using PE 240 tubing closed at one end. The closed end was pushed to the posterior end of the nasal passage and then tied in place. The nasopalatine was closed with an adhesive to prevent drainage of the perfusing solution from the nasal to the oral cavity. The rats were dosed in one nostril with 50 µl of peptide solution in two forms; the control solution had no inhibitor added, the test solution had inhibitor added at concentrations specified in the examples shown below. The dosing solution was 0.1 M phosphate buffer (pH 7.4). At certain time intervals (one rat/time interval), the drug was washed from the nose via the other nostril with 10 ml of 0.1 M phosphate buffer (pH 3.8) using a peristaltic pump. The nasal washing was then placed in a 10 ml volumetric flask and adjusted to 10 ml with the same buffer and analyzed for the peptide by HPLC. The analysis of leucine enkephalin and its major metabolite involved taking aliquots of samples, diluting them with 200 µl of 0.1 M citric acid (pH 2.3) to quench hydrolysis and subjecting the samples to analysis (for in vivo in situ studies, the washings were injected as they were obtained). High Pressure Liquid Chromatography (HPLC) was run on a 4.6 x 250 mm C₈ column. The mobile phase consisted of 0.1 M NaH₂PO₄-H₃PO₄-acetonitrile (916 : 5 : 275) and was delivered at a flow rate of 1.7 ml/min. Detection was by UV at 210 nm. Retention times for leucine enkephalin and its major degradation product, Des-Tyr-leucine enkephalin were 7.3 and 4.8 min., respectively. Data were calculated as % of leucine enkephalin remaining in the nasal perfusate as a function of time, counting the concentration at zero time as 100%. In this example, a 10 ml solution of 0.1 M phosphate buffer solution (pH 7.4) containing 100 µM leucine enkephalin (the peptide) in the absence or presence of 0.1 µM 3-methyl-1(4,4,5,5-tetramethyl-1,3,2-dioxaborolane-2-yl)-1-butamine, trifluoroacetic acid salt (boroleucine) as the inhibitor was perfused nasally in rats as described above. A 10 ml portion of the peptide solution was placed in a water-jacketed container, maintained at 37°C and circulated through the nasal cavity of rats using a peristaltic pump. The perfusing solution was passed through the nasal cavity, out the nostrils, through a funnel, and returned to the water-jacketed container. The perfusate was analyzed by the ANALYTICAL METHOD described above.

Compound: CC(C)CC(N)B1OC(C)(C)C(C)(C)O1 (centres unmarked) [boroleucine, 3-methyl-1(4,4,5,5-tetramethyl-1,3,2-dioxaborolane-2-yl)-1-butamine, trifluoroacetic acid salt]
- % of leucine enkephalin remaining in the nasal perfusate (0.01 µM Boroleucine (title: 0.1 µM), 0 min): 100.0±0.0%
- % of leucine enkephalin remaining in the nasal perfusate (0.01 µM Boroleucine (title: 0.1 µM), 5 min): 96.6±1.5%
- % of leucine enkephalin remaining in the nasal perfusate (0.01 µM Boroleucine (title: 0.1 µM), 10 min): 93.5±3.0%
- % of leucine enkephalin remaining in the nasal perfusate (0.01 µM Boroleucine (title: 0.1 µM), 20 min): 96.4±1.7%
- % of leucine enkephalin remaining in the nasal perfusate (0.01 µM Boroleucine (title: 0.1 µM), 30 min): 92.7±3.3%
- % of leucine enkephalin remaining in the nasal perfusate (0.01 µM Boroleucine (title: 0.1 µM), 45 min): 91.8±2.5%
- % of leucine enkephalin remaining in the nasal perfusate (0.01 µM Boroleucine (title: 0.1 µM), 90 min): 85.7±3.5%
- % of leucine enkephalin remaining in the nasal perfusate (0.01 µM inhibitor, 0 min): 100.0±0.0%
- % of leucine enkephalin remaining in the nasal perfusate (0.01 µM inhibitor, 10 min): 90.6±3.5%
- % of leucine enkephalin remaining in the nasal perfusate (0.01 µM inhibitor, 20 min): 89.1±5.3%
- % of leucine enkephalin remaining in the nasal perfusate (0.01 µM inhibitor, 30 min): 79.1±2.9%
- % of leucine enkephalin remaining in the nasal perfusate (0.01 µM inhibitor, 45 min): 74.9±2.8%
- % of leucine enkephalin remaining in the nasal perfusate (0.01 µM inhibitor, 60 min): 69.2±2.0%
- % of leucine enkephalin remaining in the nasal perfusate (0.01 µM inhibitor, 90 min): 56.2±1.6%
- % of leucine enkephalin remaining in the nasal perfusate (0.03 µM inhibitor, 0 min): 100.0±0.0%
- % of leucine enkephalin remaining in the nasal perfusate (0.03 µM inhibitor, 5 min): 94.1±1.7%
- % of leucine enkephalin remaining in the nasal perfusate (0.03 µM inhibitor, 10 min): 93.6±1.6%
- % of leucine enkephalin remaining in the nasal perfusate (0.03 µM inhibitor, 20 min): 91.8±2.2%
- % of leucine enkephalin remaining in the nasal perfusate (0.03 µM inhibitor, 30 min): 88.3±1.4%
- % of leucine enkephalin remaining in the nasal perfusate (0.03 µM inhibitor, 45 min): 85.7±1.3%
- % of leucine enkephalin remaining in the nasal perfusate (0.03 µM inhibitor, 60 min): 81.5±1.4%
- % of leucine enkephalin remaining in the nasal perfusate (0.03 µM inhibitor, 90 min): 72.9±1.0%
- order of inhibition of degradation (0.1 µM boroleucine, 10 µM bestatin, 100 µM puromycin): boroleucine> bestatin> puromycin
- % Leucine Enkephalin Remaining (0 min): 100.0±0.0%
- % Leucine Enkephalin Remaining (5 min): 96.6±1.5%
- % Leucine Enkephalin Remaining (10 min): 93.5±3.0%
- % Leucine Enkephalin Remaining (20 min): 96.4±1.7%
- % Leucine Enkephalin Remaining (30 min): 92.7±3.3%
- % Leucine Enkephalin Remaining (45 min): 91.8±2.5%
- % Leucine Enkephalin Remaining (60 min): 88.8±2.6%
- % Leucine Enkephalin Remaining (90 min): 85.6±3.5%
- comparison of the inhibitory effect of equimolar concentrations (0.1 µM of each inhibitor): superior to boroalanine
